These are literature values, as cited in patent US8808722B2, “Stable antiseptic compositions and methods” (3M Innovative Properties Company, priority 2010, dated 2014).

Molecules are shown by their SMILES.

The conditions of the data set: at 25° C.

On to `II` [elemental iodine, iodine], for which the solubility in water is recorded as 0.03 wt-%.
